Counter-ions that a name gives are not always drawn. Active and inactive are the calls of the source.
Assays:
cells [1] = format: functional, cell-based
cells [2] = format: functional, cell-based; remark: listed apart in the source
[3] = viability of PTEN-deleted HCT116 cells – cell-based, HCT116 PTEN knockout, dose response (AID 1047); format: functional;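 further: HCT116 colon tumor cells with PTEN knocked out; cells exposed to compound for 60 hours before readout; potency for loss of cell viability measured by luminescence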
[4] = viability of HCT116 lacking mutant beta-catenin – cell-based, human colon tumor, dose response (AID 1045); format: functional;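 further: HCT116 colon tumor cells with beta catenin knocked out; cells exposed to compound for 60 hours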
[5] = viability of uninfected HEp-2 cells – cell-based, HTS, cytotoxicity control for RSV inhibitor project, dose response (AID 2410); format: functional; conditions: human respiratory syncytial virus
[6] = reduction of Shn3 3'UTR-driven luciferase in osteoblasts – cell-based, Clone20 osteoblasts, firefly luciferase, cherry-picked, dose response (AID 624132); format: functional;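 further: firefly luciferase luminescence from reporter carrying the Shn3 3'UTR in osteoblasts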
[7] = non-specific 3'UTR reporter inhibition in Clone20-Shn3RL – cell-based, Renilla luciferase, cherry-picked, counter-screen for Shn3 inhibitor project, dose response (AID 624133); format: functional
[8] = Luminescence Cell-Based Dose Response HTS to Identify Inhibitors of 5'UTR Stem-Loop Driven Prion Protein mRNA Translation in H4 Neuroglioblastoma Cells. [Related pubchem assays: 1827 (Project Summary), 1813 (Primary HTS)]; format: functional
[9] = luciferase reporter signal suppression in cells – H4 neuroglioma cells, luminescence, dose response (AID 1990); format: functional, cell-based
Cytochrome P450 2D6 = Cytochrome P450 2D6 (Homo sapiens, UniProt P10635);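 further: CYP2D6 member of a cytochrome P450 panel assay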
Cytochrome P450 2D6, sequence (P10635 whole entry): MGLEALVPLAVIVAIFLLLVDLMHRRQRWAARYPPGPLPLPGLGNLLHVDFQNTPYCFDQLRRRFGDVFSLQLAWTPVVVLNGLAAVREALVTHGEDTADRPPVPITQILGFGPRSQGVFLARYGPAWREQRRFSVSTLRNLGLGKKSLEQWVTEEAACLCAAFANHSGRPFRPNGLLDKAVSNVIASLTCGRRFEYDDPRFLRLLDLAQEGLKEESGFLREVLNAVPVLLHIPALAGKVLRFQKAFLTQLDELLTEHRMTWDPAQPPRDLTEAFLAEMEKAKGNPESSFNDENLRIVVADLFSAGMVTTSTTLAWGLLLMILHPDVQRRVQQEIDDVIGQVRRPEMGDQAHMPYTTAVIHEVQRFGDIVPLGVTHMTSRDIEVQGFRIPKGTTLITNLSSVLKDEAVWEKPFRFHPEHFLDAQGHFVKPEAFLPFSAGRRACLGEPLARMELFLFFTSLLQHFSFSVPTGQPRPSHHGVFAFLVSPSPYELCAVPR

Cytochrome P450 3A4 = Cytochrome P450 3A4 (Homo sapiens, UniProt P08684);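 further: CYP3A4 tested as one member of a cytochrome P450 panel screen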
Cytochrome P450 3A4, sequence (P08684 whole entry): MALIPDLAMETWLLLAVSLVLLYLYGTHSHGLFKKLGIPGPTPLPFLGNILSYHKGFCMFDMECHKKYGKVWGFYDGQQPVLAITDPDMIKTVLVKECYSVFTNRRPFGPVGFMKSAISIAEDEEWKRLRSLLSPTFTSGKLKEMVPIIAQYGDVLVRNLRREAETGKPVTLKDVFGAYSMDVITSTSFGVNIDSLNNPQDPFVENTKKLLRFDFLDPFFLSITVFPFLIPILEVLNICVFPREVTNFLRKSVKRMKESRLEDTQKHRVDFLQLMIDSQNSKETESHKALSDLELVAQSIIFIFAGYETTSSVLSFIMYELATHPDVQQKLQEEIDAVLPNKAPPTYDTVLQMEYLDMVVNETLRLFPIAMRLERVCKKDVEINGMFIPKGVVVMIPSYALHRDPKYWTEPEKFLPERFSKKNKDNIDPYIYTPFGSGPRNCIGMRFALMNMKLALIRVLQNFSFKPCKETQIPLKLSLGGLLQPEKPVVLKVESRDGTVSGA

Protein RecA = target: T1, Protein RecA (Mycobacterium tuberculosis, UniProt P9WHJ3); assay: Fluorescence Cell-Free Homogeneous Dose Retest to Identify Inhibitors of RecA-Intein Splicing Activity. [Related pubchem assays (depositor defined):AID2097, AID2223, AID489010, AID492950]; format: functional
T1 sequence (P9WHJ3 whole entry): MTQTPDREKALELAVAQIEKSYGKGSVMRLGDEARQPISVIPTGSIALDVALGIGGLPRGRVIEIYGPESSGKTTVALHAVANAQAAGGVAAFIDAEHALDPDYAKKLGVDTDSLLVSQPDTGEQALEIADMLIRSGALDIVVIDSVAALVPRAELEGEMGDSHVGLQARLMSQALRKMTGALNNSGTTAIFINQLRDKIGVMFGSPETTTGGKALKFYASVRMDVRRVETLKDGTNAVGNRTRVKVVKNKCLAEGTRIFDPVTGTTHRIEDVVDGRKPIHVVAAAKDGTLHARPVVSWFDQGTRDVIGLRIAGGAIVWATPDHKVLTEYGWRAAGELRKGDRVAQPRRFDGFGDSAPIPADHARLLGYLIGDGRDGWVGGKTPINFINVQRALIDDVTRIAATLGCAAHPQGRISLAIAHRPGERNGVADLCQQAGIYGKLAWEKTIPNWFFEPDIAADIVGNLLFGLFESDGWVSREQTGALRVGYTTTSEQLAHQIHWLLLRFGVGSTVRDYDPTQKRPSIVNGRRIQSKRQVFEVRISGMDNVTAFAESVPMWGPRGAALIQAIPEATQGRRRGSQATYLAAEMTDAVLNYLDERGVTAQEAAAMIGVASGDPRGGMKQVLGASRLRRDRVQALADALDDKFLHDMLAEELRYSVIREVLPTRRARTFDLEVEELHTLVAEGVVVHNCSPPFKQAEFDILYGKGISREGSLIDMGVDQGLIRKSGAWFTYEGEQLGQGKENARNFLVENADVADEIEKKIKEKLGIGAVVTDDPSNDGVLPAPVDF

[10] = target: T2, Ubiquitin-conjugating enzyme E2 N (Homo sapiens, UniProt P61088); format: functional;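 further: Dose-response confirmation in a TR-FRET assay detecting UBC13-driven polyubiquitin chain formation, inhibition measured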
T2 sequence (P61088 whole entry): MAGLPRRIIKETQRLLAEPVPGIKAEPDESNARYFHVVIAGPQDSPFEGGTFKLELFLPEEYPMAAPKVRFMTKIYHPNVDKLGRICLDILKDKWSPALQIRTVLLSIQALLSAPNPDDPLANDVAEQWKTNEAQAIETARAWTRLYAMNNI

[11] = target: T3, Replicative DNA helicase DnaB (Mycobacterium tuberculosis, UniProt P9WMR3); assay: DnaB intein splicing inhibitors, dose response, biochemical, cell-free fluorescence (AID 449749); format: functional
T3 sequence (P9WMR3 whole entry): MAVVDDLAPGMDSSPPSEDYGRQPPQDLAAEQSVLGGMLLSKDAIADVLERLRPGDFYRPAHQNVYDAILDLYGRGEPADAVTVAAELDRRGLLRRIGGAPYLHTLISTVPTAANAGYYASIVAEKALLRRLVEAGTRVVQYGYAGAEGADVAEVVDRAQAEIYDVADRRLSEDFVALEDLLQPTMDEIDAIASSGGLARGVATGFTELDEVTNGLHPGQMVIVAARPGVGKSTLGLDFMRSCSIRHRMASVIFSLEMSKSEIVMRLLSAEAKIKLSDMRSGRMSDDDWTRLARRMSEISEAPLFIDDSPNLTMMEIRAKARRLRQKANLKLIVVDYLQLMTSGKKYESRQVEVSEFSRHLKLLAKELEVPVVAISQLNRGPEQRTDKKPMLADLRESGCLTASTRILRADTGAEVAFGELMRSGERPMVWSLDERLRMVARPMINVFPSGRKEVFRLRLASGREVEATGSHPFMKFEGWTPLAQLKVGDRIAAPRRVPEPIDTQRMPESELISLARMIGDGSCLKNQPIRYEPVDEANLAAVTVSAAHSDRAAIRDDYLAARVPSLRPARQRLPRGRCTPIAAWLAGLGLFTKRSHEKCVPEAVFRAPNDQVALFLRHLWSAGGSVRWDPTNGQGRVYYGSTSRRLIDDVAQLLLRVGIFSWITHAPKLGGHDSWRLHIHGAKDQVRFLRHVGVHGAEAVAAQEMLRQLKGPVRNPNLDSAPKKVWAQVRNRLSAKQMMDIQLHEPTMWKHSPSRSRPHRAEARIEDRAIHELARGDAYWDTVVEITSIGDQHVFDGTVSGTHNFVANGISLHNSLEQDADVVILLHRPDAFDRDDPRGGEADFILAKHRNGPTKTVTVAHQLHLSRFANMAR

[12] = target: T4, Heat shock factor protein 1 (Mus musculus, UniProt P38532); assay: enhancement of HSF1-driven luciferase signal – cell-based, NIH3T3, luminescence, dose retest, confirmation (AID 435004); format: functional;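 further: stress induced by proteasome inhibitor MG132 added 30 min after compound; luciferase reporter driven by HSF1 response element in NIH3T3 cells; actives raise luminescence as potentiators of the MG132 stress response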
T4 sequence (P38532 whole entry): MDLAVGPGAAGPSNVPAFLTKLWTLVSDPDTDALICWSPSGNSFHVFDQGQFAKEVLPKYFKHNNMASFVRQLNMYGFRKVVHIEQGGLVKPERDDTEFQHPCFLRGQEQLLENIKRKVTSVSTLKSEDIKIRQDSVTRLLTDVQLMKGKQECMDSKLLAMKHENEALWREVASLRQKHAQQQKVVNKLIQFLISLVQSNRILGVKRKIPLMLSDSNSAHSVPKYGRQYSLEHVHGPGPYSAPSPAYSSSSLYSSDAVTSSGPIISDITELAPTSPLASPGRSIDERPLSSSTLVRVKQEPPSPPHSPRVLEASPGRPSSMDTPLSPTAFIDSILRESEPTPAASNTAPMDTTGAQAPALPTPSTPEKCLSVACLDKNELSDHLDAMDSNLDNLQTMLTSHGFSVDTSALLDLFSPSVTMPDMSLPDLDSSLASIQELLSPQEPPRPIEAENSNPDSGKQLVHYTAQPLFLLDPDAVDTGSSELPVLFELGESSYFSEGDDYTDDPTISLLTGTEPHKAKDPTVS

[13] = loss of viability in HepG2 cells – cell-based, CellTiter-Glo, cherry-picked, cytotoxicity control for Shn3 inhibitor project, dose response (AID 624134); format: functional
[14] = target: T4, Heat shock factor protein 1; assay: decrease of HSF1-responsive luciferase luminescence – cell-based, NIH3T3, dose retest, confirmation (AID 2382); format: functional;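 further: NIH3T3 fibroblasts with HSF1-driven luciferase reporter stressed by proteasome inhibitor MG132; luminescence from HSF1-driven luciferase expression after 8 hours of MG132 stress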
[15] = Trypanosoma cruzi growth suppression in host cells – NIH3T3 host cells, beta-gal luminescence, confirmation (AID 2044); format: functional, cell-based;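 further: intracellular parasites grown in NIH/3T3 mouse fibroblasts as host cells; luminescent beta-galactosidase reporter signal from transgenic T. cruzi replicating inside host cells; inhibitors lower the luminescence signal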
[16] = NIH3T3 cell viability loss – ATP luminescence, mouse fibroblasts, counter-screen, dose response (AID 2010); format: functional, cell-based;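 further: cells exposed to compound for about 90 hours before reading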
[17] = Luminescence Cell-Based Dose Retest to Confirm Inhibitors of Cancer Stem Cells. [Related pubchem assays (depositor defined):AID2717, AID2721]; format: functional; conditions: Homo sapiens
INS1 = assay: INS-1E survival protection against cytokine death – cell-based, luminescence, retest, dose response (AID 449756); format: functional; conditions: Rattus norvegicus;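 further: cell death triggered by IL-1 beta plus TNF-alpha plus IFN-gamma mixture; protective hits raise ATP signal compared with cytokine alone wells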

Compound: COc1ccc(CN(C)CC(=O)Nc2ccc(SC(F)F)cc2)cc1OC
- EC50 (cells [1]): > 350 µM (not active)
- EC50 (cells [2]): > 350 µM (not active)

Compound: COc1ccc(/N=c2\oc3ccc(OC)cc3cc2-c2nc3ccccc3[nH]2)cc1
- EC50 [3]: 3.77 µM (active)
- EC50 [4]: 13 µM (active)

Compound: CC(C)(C)NC(=O)CN(C(=O)Cn1nnc(-c2ccc(Cl)cc2)n1)C1CCN(Cc2ccccc2)CC1
- EC50 [3]: 41.4 µM (active)
- EC50 [4]: 37.9 µM (active)
- CC50 [5]: 25.7 µM (active)

Compound: COc1ccc([C@H]2CC(=O)C=C(c3ccc4c(c3)OCO4)C2)cc1OC
- AC50 [6]: 58.3 µM (active)
- AC50 [7]: 28.9 µM (active)

Compound: CCC(CC)NC(=O)c1cc2c(C)nn(Cc3ccccc3Cl)c2s1
- EC50 [8]: > 120 µM (not active)
- EC50 [9]: 11.7 µM (active)

Compound: COc1ccc(CNc2ccnc(-c3ccccc3Cl)n2)c(OC)c1
- AC50 (Cytochrome P450 2D6): 39.8 µM (inconclusive)

Compound: O=C(Nc1ccc(Br)cc1F)c1ccc2c(c1)OCCO2
- EC50 [8]: 10.8 µM (active)

Compound: O=C(NC12CC3CC(CC(C3)C1)C2)C12CC3CC(C1)CC(n1cnc(Cl)n1)(C3)C2
- AC50 (Cytochrome P450 3A4): 14.1 µM (inconclusive)
- AC50 (Cytochrome P450 2D6): 11.2 µM (inconclusive)

Compound: C=C(C)CN=C(S)N=Nc1c(O)[nH]c2ccc([N+](=O)[O-])cc12
- EC50 (Protein RecA): 151 µM (inconclusive)
- IC50 [10]: > 20 µM (inactive)
- AC50 [11]: 52.8 µM (active)

Compound: O=C(c1ccco1)N1CCC[C@@]2(CCN(c3ncccn3)C2)C1
- AC50 (Cytochrome P450 2D6): 25.1 µM (inconclusive)

Compound: O=C(NNC(=O)C(O)(c1ccccc1)c1ccccc1)C1CC1
- EC50 (cells [1]): > 350 µM (not active)
- EC50 (cells [2]): > 350 µM (not active)

Compound: Cc1ccc(S(=O)(=O)c2c(N)n(Cc3ccco3)c3nc4ccccc4nc23)cc1C
- EC50 [3]: 18.4 µM (active)
- EC50 [4]: 20.1 µM (active)

Compound: CNC(=O)C1CC(=O)N(c2ccc(OCC(=O)N3CCCC3)cc2)C1 (stereo unspecified)
- EC50 [12]: > 260 µM (inactive)
- EC50 (cells [1]): > 350 µM (not active)
- EC50 (cells [2]): > 350 µM (not active)

Compound: CN(CC(=O)Nc1cccc(S(=O)(=O)N2CCOCC2)c1)CC(=O)Nc1ccc(Cl)c(C(F)(F)F)c1
- AC50 [6]: 2.4 µM (active)
- AC50 [7]: 6.89 µM (active)
- AC50 [13]: 56.7 µM (active)

Compound: CCCn1c(SCC(=O)N2CCc3ccccc3C2)nc2c1c(=O)n(C)c(=O)n2C
- EC50 (cells [1]): > 350 µM (not active)
- EC50 (cells [2]): > 350 µM (not active)

Compound: CCOC(=O)c1cc2sccc2n1CC(=O)Nc1ccc(OC)cc1
- EC50 (cells [1]): > 350 µM (not active)
- EC50 (cells [2]): > 350 µM (not active)
- EC50 [14]: > 195 µM (not active)

Compound: CN(CC(=O)Nc1ccc(S(=O)(=O)N2CCCC2)cc1)CC(=O)Nc1cccc(F)c1
- EC50 (cells [1]): > 350 µM (not active)
- EC50 (cells [2]): > 350 µM (not active)

Compound: CC(=O)Nc1ccc(S(=O)(=O)N2CCN(CC(O)COc3ccc4ccccc4c3)CC2)cc1 (stereo unspecified)
- IC50 [10]: > 20 µM (inactive)

Compound: CCOC(=O)c1c(NC(=O)CSc2nc3cc(Cl)ccc3c(=O)n2Cc2ccco2)sc(C(=O)N(C)C)c1C
- EC50 [15]: 0.999 µM (active)
- EC50 [16]: > 60 µM (inconclusive)
- EC50 [12]: 7.33 µM (active)
- EC50 [3]: 6.8 µM (active)
- EC50 [4]: 12.2 µM (active)

Compound: Cc1cc(C)n(-c2nnc(C)n2/N=C/c2ccccc2OCc2ccccc2Cl)n1
- AC50 (Cytochrome P450 2D6): 28.2 µM (inconclusive)

Compound: O=[N+]([O-])c1c(-c2cn[nH]c2)n[nH]c1-c1cn[nH]c1
- IC50 [10]: > 20 µM (inactive)

Compound: CN1CCCC(CC2c3ccccc3Sc3ccccc32)C1 (stereo unspecified) [METHIXENE HYDROCHLORIDE]
- IC50 [10]: > 20 µM (inactive)

Compound: O=C(NCc1ccc2c(c1)OCO2)c1nc(S(=O)(=O)Cc2ccccc2F)ncc1Cl
- AC50 [6]: 5.19 µM (active)
- AC50 [7]: 5.92 µM (active)
- EC50 (Protein RecA): 3.25 µM (active)
- AC50 [17]: 5.02 µM (active)
- AC50 [13]: 31.1 µM (active)
- AC50 [11]: 2.6 µM (active)

Compound: Cc1ccc2nnn(Cc3cccc(C(C)(C)C)c3O)c2c1
- AC50 [6]: 5.44 µM (active)
- AC50 [7]: 7.31 µM (active)
- EC50 [12]: > 260 µM (inactive)
- AC50 [13]: 59.3 µM (active)

Compound: Cc1ccc(C)c(NC(S)=NC(NC(=O)Cc2cccc3ccccc23)C(Cl)(Cl)Cl)c1 (stereo unspecified)
- AC50 [17]: 0.861 µM (active)
- EC50 [3]: 13.9 µM (active)
- EC50 [4]: 15.5 µM (active)
- AC50 (INS1): 4.16 µM (active)

Compound: Cc1cccc(NC(S)=Nc2ccc(Br)cc2)c1
- AC50 (Cytochrome P450 3A4): 25.1 µM (inconclusive)
- AC50 (Cytochrome P450 2D6): 8.91 µM (inconclusive)

Source: ChEMBL document CHEMBL1201862, “PubChem BioAssay data set” (2004)
